US20240262844A1, “PYRIDINIUM SALTS AND METHODS OF USE” (UNIVERSITY OF WYOMING, priority 2023, published 2024)
Where a name gives a salt, the structure may show the parent alone.

Legend:
HEK293T cells = test: In-situ chemoproteomic tryptophan profiling of live HEK293T cells (peptide-level enrichment); format: cell-based, Human
Protocol: Cell culture and in-situ tryptophan probe treatment: Cell lines were cultured at 37° C. with 5% C02. Human embryonic kidney 293 cells expressing a mutant version of the SV40 large T antigen (HEKT293T cells) were grown in Dulbecco's Modified Eagle Medium (DMEM, Gibco) supplemented with 10% fetal bovine serum and 1% penicillin/streptomycin. For in-situ labeling, cells were grown to 90% confluence, washed with Dulbecco's phosphate buffered saline (DPBS), treated with 100x stocks of the tryptophan probes (the pyridinium salts) in OptiMem (GibCo) to generate final concentrations (0 μM, 1 μM, 10 μM, and 100 μM) in 1% dimethylsulfoxide (DMSO). Cells were incubated for 1 hour at 37° C. with 5% C02 followed by photo-activation at the respective wavelengths for 20 minutes at 4° C. Cells were harvested with a cell scraper, washed 3× with DPBS, and pellets were stored at −80° C. until further use. The following light sources were used for photo-activation: • Pyridinium salt 1a (also called, probe 1a): wavelength=302 nm; light source=Analytikjena, UVP 3UV Lamp, 8W. • Pyridinium salt 1b (also called, probe 1b): wavelength=320 nm; light source=Analytikjena, UVP 3UV Lamp, 8W, equipped with 320 nm long-pass filter. • Pyridinium salt 2b (also called, probe 2b): wavelength=440 nm; light source=Kessil PR-160L-440 nm LED, 45W. • Pyridinium salt 2d (also called, probe 2d): wavelength=440 nm; light source=Kessil PR-160L-440 nm LED, 45W.
In-situ tryptophan probe sample processing for peptide-level characterization: Cell pellets were lysed via sonication (QSonica) at 50% amplitude, 2 seconds ON, 3 seconds OFF, 30 seconds in 40 mM HEPES pH 7.5 (4-(2-hydroxyethyl)-1-piperazineethanesulfonic acid), 1.5 mM magnesium chloride (MgCl2), 1% Sodium dodecyl sulfate (SDS), 0.8% NP-40 (also known as nonyl phenoxypolyethoxylethanol), and 1x protease inhibitors (Thermo). Protein concentration was determined by BCA (Pierce). 400 μg protein lysate were taken for copper-catalyzed azide-alkyne cycloaddition (CuAAC) reactions with 100 μM of the acid cleavable DAPBS Biotin Alkyne (Click Chemistry Tools), 250 μM copper sulfate (CuSO4), 500 μM BTTP (C20H34N10O2) (Click Chemistry Tools), and 2.5 mM ascorbate and incubated for 60 minutes at R.T. Samples were precipitated with methanol:chloroform and re-suspended in 50 mM HEPES pH 8.0 containing 1% RapiGest SF (Waters). The samples were reduced with 10 mM dithiothreitol (DTT) (Pierce) and alkylated with 25 mM iodoacetamide (Pierce). The samples were diluted down to 0.1% RapiGest SF and treated with 4 μg Trypsin/LysC (Promega) at 37° C. for 16 hours. The digested peptides were than labeled with isobaric tandem mass tag (TMT) reagents (Thermo) as specified by the manufacturer. The labeled peptides were then combined, concentrated to remove acetonitrile, and re-suspended in 50 mM HEPES pH 8.0 containing 0.2% SDS. The labeled peptides were then treated with 100 μL Neutravidin resin as a 50% slurry (Peirce) for 16 hours at R.T. The following day, the Neutravidin resin was washed extensively with 50 mM HEPES pH 8.0 containing 0.2% SDS (3×), 50 mM HEPES pH 8.0 (5x), and double-distilled water (ddH2O) (5×). The bound peptides were then cleaved from the resin by incubating with 100 μL 10% formic acid for 30 minutes (2×).
Quantitative proteomics by two-dimensional nano liquid chromatography-tandem mass spectrometry (nLC-MS/MS): For protein-level characterization, the TMT-labeled sample were reconstituted in 0.1% formic acid (FA)/2% acetonitrile for offline high-pH reversed phase separation (RP10) using a Dionex UltiMate 3000 high-performance liquid chromatography (HPLC) system with fraction collection using Chromeleon v.6.8 (Thermo) software. Separation was achieved on a Waters Xbridge C18 3.5 μm 2.1×150 mm HPLC column (Waters) using a flow rate of 250 μL min-1 and the following ternary gradient and conditions: mobile phase A=water (HPLC grade), mobile phase B=acetonitrile (HPLC grade), and mobile phase C=200 mM ammonium acetate, pH 10. […]

PARP1 = molecular target: T1, PARP1 (Homo sapiens, UniProt P09874); test: In-situ labeling and enrichment of PARP1 in HEK293T cells (MS-MS, Western); format: cell-based
T1 construct: endogenous in cells; host or cells: HEK293T
Protocol: Cell culture and in-situ tryptophan probe treatment: Cell lines were cultured at 37° C. with 5% C02. Human embryonic kidney 293 cells expressing a mutant version of the SV40 large T antigen (HEKT293T cells) were grown in Dulbecco's Modified Eagle Medium (DMEM, Gibco) supplemented with 10% fetal bovine serum and 1% penicillin/streptomycin. For in-situ labeling, cells were grown to 90% confluence, washed with Dulbecco's phosphate buffered saline (DPBS), treated with 100x stocks of the tryptophan probes (the pyridinium salts) in OptiMem (GibCo) to generate final concentrations (0 μM, 1 μM, 10 μM, and 100 μM) in 1% dimethylsulfoxide (DMSO). Cells were incubated for 1 hour at 37° C. with 5% C02 followed by photo-activation at the respective wavelengths for 20 minutes at 4° C. Cells were harvested with a cell scraper, washed 3× with DPBS, and pellets were stored at −80° C. until further use. […]
In-situ tryptophan probe sample processing for peptide-level characterization: Cell pellets were lysed via sonication (QSonica) at 50% amplitude, 2 seconds ON, 3 seconds OFF, 30 seconds in 40 mM HEPES pH 7.5 (4-(2-hydroxyethyl)-1-piperazineethanesulfonic acid), 1.5 mM magnesium chloride (MgCl2), 1% Sodium dodecyl sulfate (SDS), 0.8% NP-40 (also known as nonyl phenoxypolyethoxylethanol), and 1x protease inhibitors (Thermo). Protein concentration was determined by BCA (Pierce). […]

[1] = about 100 μM probe, 60 min 37° C., 440 nm 20 min 4° C.

T1 sequence (P09874 whole entry): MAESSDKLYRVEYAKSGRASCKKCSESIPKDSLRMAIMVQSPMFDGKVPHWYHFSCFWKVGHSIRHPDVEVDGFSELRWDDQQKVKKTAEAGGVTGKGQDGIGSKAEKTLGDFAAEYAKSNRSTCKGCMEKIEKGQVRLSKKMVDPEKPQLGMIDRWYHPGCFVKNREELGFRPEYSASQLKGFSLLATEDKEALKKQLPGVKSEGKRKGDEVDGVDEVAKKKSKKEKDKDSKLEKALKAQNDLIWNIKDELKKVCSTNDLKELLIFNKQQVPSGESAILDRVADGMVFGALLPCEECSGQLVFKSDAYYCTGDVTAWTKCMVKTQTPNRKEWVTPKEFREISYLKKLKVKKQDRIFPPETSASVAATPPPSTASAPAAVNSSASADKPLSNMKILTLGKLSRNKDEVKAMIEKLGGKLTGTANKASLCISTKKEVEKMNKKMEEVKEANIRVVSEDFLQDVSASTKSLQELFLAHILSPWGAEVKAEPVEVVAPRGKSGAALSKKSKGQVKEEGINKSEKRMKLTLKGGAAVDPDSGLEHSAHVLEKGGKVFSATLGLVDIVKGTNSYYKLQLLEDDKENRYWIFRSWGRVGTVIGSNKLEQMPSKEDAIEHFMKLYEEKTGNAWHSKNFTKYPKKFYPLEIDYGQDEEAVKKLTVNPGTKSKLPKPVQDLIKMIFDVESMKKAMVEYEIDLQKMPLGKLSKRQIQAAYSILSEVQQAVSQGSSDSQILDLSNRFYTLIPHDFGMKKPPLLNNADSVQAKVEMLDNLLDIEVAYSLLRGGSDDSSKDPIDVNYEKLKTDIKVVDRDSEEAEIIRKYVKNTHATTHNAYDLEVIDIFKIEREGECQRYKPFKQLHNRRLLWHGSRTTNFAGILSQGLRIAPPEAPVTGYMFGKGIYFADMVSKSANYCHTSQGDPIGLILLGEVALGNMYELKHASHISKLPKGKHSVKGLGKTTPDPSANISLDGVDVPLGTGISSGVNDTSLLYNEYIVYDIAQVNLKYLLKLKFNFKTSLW

For COc1ccc2cc(-c3cc(C)[n+](N(C)C(=O)OCCCCCCN=[N+]=[N-])c(C)c3)ccc2c1 [Pyridinium salt 2d, 1-((((6-azidohexyl)oxy)carbonyl)(methyl)amino)-4-(6-methoxynaphthalen-2-yl)-2,6-dimethylpyridin-1-ium tetrafluoroborate], the “probe concentration giving measurable two-fold enrichment of Trp-modified peptides” value (HEK293T cells; 440 nm photoirradiation) was “about 10 μM”, the “number of Trp-modified peptide fragments showing dose-response behavior” value (HEK293T cells; [1]) was 290 and the “number of unique proteins corresponding to Trp-modified peptide fragments” value (HEK293T cells; [1]) was 209. For the same compound, the “number of unique peptides harboring a tryptophan modification” value (HEK293T cells; chemoselectivity profile, in situ) was 221, the plasma membrane permeation (HEK293T cells; inferred from subcellular localization of labeled proteins) was “readily crosses the plasma membrane” and the “thermal stability under whole cell culture conditions” value (HEK293T cells; no peptide enrichment without 440 nm photoirradiation) was “robust thermal stability”. The “selectivity for tryptophan, relative amino acid frequency taken into account” value (HEK293T cells; versus His, Tyr, Cys modifications, in situ) was “about 82%”, the “modified and dose-dependently enriched tryptophan residues” value (PARP1; chemoproteomic profiling, HEK293T cells) was “Trp79 and Trp318” and the “PARP1 in enriched protein mixture (Western analysis)” value (PARP1; cultures irradiated with blue light in the presence of probe, protein-level enrichment) was “found to contain both proteins”.
